Source: patent publication US7625897B2, “Non-nucleoside reverse transcriptase inhibitors” (Roche Palo Alto LLC, priority 2005, dated 2009)
Where two headings read alike, the source gives them in different places.

What was measured:
HIV-1 RT = HIV-1 RT (Human immunodeficiency virus type 1 group M subtype B, UniProt P03366); assay: HIV Reverse Transcriptase Assay: Inhibitor IC50 determination; type: biochemical
Experimental: HIV Reverse Transcriptase Assay: Inhibitor IC50 determination
HIV-1 RT assay was carried out in 96-well Millipore MultiScreen MADVNOB50 plates using purified recombinant enzyme and a poly(rA)/oligo(dT)16 template-primer in a total volume of 50 μL. The assay constituents were 50 mM Tris/HCl, 50 mM NaCl, 1 mM EDTA, 6 mM MgCl2, 5 μM dTTP, 0.15 μCi [^3H] dTTP, 5 μg/ml poly (rA) pre annealed to 2.5 μg/ml oligo (dT)16 and a range of inhibitor concentrations in a final concentration of 10% DMSO. Reactions were initiated by adding 4 nM HIV-1 RT and after incubation at 37° C. for 30 min, they were stopped by the addition of 50 μl ice cold 20% TCA and allowed to precipitate at 4° C. for 30 min. The precipitates were collected by applying vacuum to the plate and sequentially washing with 3×200 μl of 10% TCA and 2×200 μl 70% ethanol. Finally, the plates were dried and radioactivity counted in a Packard TopCounter after the addition of 25 μl scintillation fluid per well. IC50's were calculated by plotting % inhibition versus log10 inhibitor concentrations.

HIV = assay: Anti-viral Assay (method of Pauwels et al.); type: cell-based; conditions: Human immunodeficiency virus 1; TABLE 3
Experimental: Anti-viral assays were carried out by the method described by R. E. Pauwels et al. J Virol. Methods 1988 20(4):309-322.

[1] = TABLE 3, read-out: RT inhibition IC50
[2] = TABLE I, purified recombinant enzyme, poly(rA)/oligo(dT)16 template-primer, read-out: HIV-RT IC50 RT

C[C@H]1NC(Cc2ccc(Cl)c(Oc3cc(C#N)cc(C#N)c3)c2F)=NNC1=O [Compound I-5, 5-[6-Chloro-2-fluoro-3-((R)-5-methyl-6-oxo-1,4,5,6-tetrahydro-[1,2,4]triazin-3-ylmethyl)-phenoxy]-isophthalonitrile]
IC50 (HIV-1 RT; [1]): 32 nM | IC50 (HIV-1 RT; [2]): 31.8 nM | melting point: 81.5 to 100 °C | EC50 (HIV): 12.2 nM

C[C@H]1NC(Cc2ccc(Cl)c(Oc3cc(Cl)cc(C#N)c3)c2F)=NNC1=O [Compound I-15, 3-Chloro-5-[6-chloro-2-fluoro-3-((R)-5-methyl-6-oxo-1,4,5,6-tetrahydro-[1,2,4]triazin-3-ylmethyl)-phenoxy]-benzonitrile]
IC50 (HIV-1 RT; [1]): 11 nM | IC50 (HIV-1 RT; [2]): 11.1 nM | melting point: 158.6 to 159.9 °C | EC50 (HIV): 8.3 nM
